Reference: patent US11912665B1, “4-(2,4,5-tris(4-chlorophenyl)-1H-imidazol-1-yl)butanoic acid as an antimicrobial compound” (KING FAISAL UNIVERSITY, priority 2023, dated 2024)

What was measured:
Format in all cases: cell-based
Bacillus cereus = experiment: agar plate disc-diffusion, antibacterial activity; conditions: nutrient agar, 37° C., 48 hours, DMSO zone subtracted; for inhibition zone Bacillus Cereus B: B = concentration of comp. = 30,000 μL; for inhibition zone Bacillus Cereus C: C = concentration of comp. = 50,000 μL
Procedure: (§1) The agar plate disc-diffusion method was applied. […] The discs were then placed onto the surface of agar plates (nutrient agar for bacteria and Sabouraud's dextrose agar for fungi) seeded with the test organism. Each plate contained 15 mL of the agar medium, previously seeded with 0.2 mL of the broth culture of each organism pregrown for 18 hours. The plates were incubated at 37° C. for 48 hours, and 72 hours for fungi. The inhibition zones were measured in millimeters (mm). Discs impregnated with DMSO were used as a control, and its inhibition zone was subtracted from the tested compound actual inhibition zone.

Staphylococcus aureus = experiment: agar plate disc-diffusion, antibacterial activity; conditions: nutrient agar, 37° C., 48 hours, DMSO zone subtracted; for inhibition zone Staphylococcus aureus A: A = concentration of comp. = 10,000 μL; for inhibition zone Staphylococcus aureus B: B = concentration of comp. = 30,000 μL; for inhibition zone Staphylococcus aureus C: C = concentration of comp. = 50,000 μL
Procedure: as §1

Pseudomonas aeruginosa = experiment: agar plate disc-diffusion, antibacterial activity; conditions: nutrient agar, 37° C., 48 hours, DMSO zone subtracted; for inhibition zone Pseudomonas aeruginosa A: A = concentration of comp. = 10 mg/mL; for inhibition zone Pseudomonas aeruginosa B: B = concentration of comp. = 30,000 μL; for inhibition zone Pseudomonas aeruginosa C: C = concentration of comp. = 50,000 μL
Procedure: (§2) The agar plate disc-diffusion method was applied. Sterilized filter papers (6 mm in diameter) were wetted with 10 μL of a solution of 4-(2,4,5-tris(4-chlorophenyl)-1H-imidazol-1-yl)butanoic acid (V) to be tested, containing 10 mg/mL in DMSO, and the discs were allowed to air dry. The discs were then placed onto the surface of agar plates (nutrient agar for bacteria and Sabouraud's dextrose agar for fungi) seeded with the test organism. Each plate contained 15 mL of the agar medium, previously seeded with 0.2 mL of the broth culture of each organism pregrown for 18 hours. The plates were incubated at 37° C. for 48 hours, and 72 hours for fungi. The inhibition zones were measured in millimeters (mm). Discs impregnated with DMSO were used as a control, and its inhibition zone was subtracted from the tested compound actual inhibition zone.

Escherichia coli = experiment: agar plate disc-diffusion, antibacterial activity; conditions: nutrient agar, 37° C., 48 hours, DMSO zone subtracted; for inhibition zone Escherichia coli A: A = concentration of comp. = 10,000 μL; for inhibition zone Escherichia coli B: B = concentration of comp. = 30,000 μL; for inhibition zone Escherichia coli C: C = concentration of comp. = 50,000 μL
Procedure: as §2

Aspergillus flavus = experiment: agar plate disc-diffusion, antifungal activity; conditions: Sabouraud's dextrose agar, 72 hours, DMSO zone subtracted; for inhibition zone Aspergillus flavus A: A = concentration of comp. = 10,000 μL; for inhibition zone Aspergillus flavus B: B = concentration of comp. = 30,000 μL; for inhibition zone Aspergillus flavus C: C = concentration of comp. = 50,000 μL
Procedure: as §1

[1] = system: Chrysosporium keratinophilum; experiment: agar plate disc-diffusion, antifungal activity; conditions: Sabouraud's dextrose agar, 72 hours, DMSO zone subtracted; for inhibition zone Chrysosporium keratinophilum A: A = concentration of comp. = 10,000 μL; for inhibition zone Chrysosporium keratinophilum B: B = concentration of comp. = 30,000 μL; for inhibition zone Chrysosporium keratinophilum C: C = concentration of comp. = 50,000 μL
Procedure: as §1

| SMILES | inhibition zone Bacillus Cereus A (Bacillus cereus) | inhibition zone Bacillus Cereus B (Bacillus cereus) | inhibition zone Bacillus Cereus C (Bacillus cereus) | inhibition zone Staphylococcus aureus A (Staphylococcus aureus) | inhibition zone Staphylococcus aureus B (Staphylococcus aureus) | inhibition zone Staphylococcus aureus C (Staphylococcus aureus) | inhibition zone Pseudomonas aeruginosa A (Pseudomonas aeruginosa) | inhibition zone Pseudomonas aeruginosa B (Pseudomonas aeruginosa) | inhibition zone Pseudomonas aeruginosa C (Pseudomonas aeruginosa) | inhibition zone Escherichia coli A (Escherichia coli) | inhibition zone Escherichia coli B (Escherichia coli) | inhibition zone Escherichia coli C (Escherichia coli) | inhibition zone Aspergillus flavus A (Aspergillus flavus) | inhibition zone Aspergillus flavus B (Aspergillus flavus) | inhibition zone Aspergillus flavus C (Aspergillus flavus) | inhibition zone Chrysosporium keratinophilum A [1] | inhibition zone Chrysosporium keratinophilum B [1] | inhibition zone Chrysosporium keratinophilum C [1] |
| --- | --- | --- | --- | --- | --- | --- | --- | --- | --- | --- | --- | --- | --- | --- | --- | --- | --- | --- |
| O=C(O)CCCn1c(-c2ccc(Cl)cc2)nc(-c2ccc(Cl)cc2)c1-c1ccc(Cl)cc1 [V, 4-(2,4,5-tris(4-chlorophenyl)-1H-imidazol-1-yl)butanoic acid] | 19 mm | 25 mm | 40 mm | 14 mm | 19 mm | 26 mm | 26 mm | 31 mm | 46 mm | 24 mm | 35 mm | 51 mm | 16 mm | 22 mm | 36 mm | 25 mm | 28 mm | 49 mm |
| O=C(O)c1cn(C2CC2)c2cc(N3CCNCC3)c(F)cc2c1=O [Cip., ciprofloxacin] | 29 mm | 31 mm | 42 mm | 42 mm | 44 mm | 53 mm | 29 mm | 30 mm | 53 mm | 30 mm | 39 mm | 60 mm | 29 mm | 30 mm | 42 mm | 29 mm | 30 mm | 53 mm |
